“Also recorded” adds a separate entry of the source.
How the values were obtained:
Wistar rats [1] = assay: Hepatobiliary injury markers and histology in rBDL rats before and after PHx (Example 6); assay type: in vivo, rat
Protocol: (§1) At baseline (i.e., directly before PHx) and one to five days after PHx, animals were euthanized under isoflurane anesthesia by exsanguination. Blood samples were collected from the caval vein in heparin-anticoagulated vacutainers (BD, Franklin Lakes, N.J.) and centrifuged for 10 min (3000×g, 4° C.). In rBDL animals sacrificed at baseline, bile was aspirated with a syringe from the dilated extrahepatic bile duct, weighed, and stored at −80° C. The liver and ileum were excised, weighed, loafed, and either fixed in a 10% (vol/vol) neutralized formalin solution (J. T. Baker, Center Valley, Pa.), snap-frozen in liquid nitrogen and stored at −80° C., or collected in RNAlater (Qiagen, Venlo, the Netherlands) and stored at −20° C. Liver regrowth was calculated from the regenerated liver mass, and was expressed as percentage of total liver mass prior to PHx. The projected remnant liver mass was calculated using the weight of the resected liver segments, which represent 70% of the total liver mass. Dry liver weights were measured to correct for hepatic water content [Kloek 2010a].
After formalin fixation, liver specimens were dehydrated, paraffin-embedded, and stained with hematoxylin and eosin (H&E), the collagen type I and III stain picrosirius red, or the proliferation marker Ki67 [Marsman 2013]. Semi-quantitative analysis of H&E- and picrosirius red-stained liver histology was performed by an experienced hepatopathologist (JV) blinded to the experimental groups using a scoring system detailed in Table 1. Ki67-positive hepatocyte nuclei were manually counted by two observers (RFG and PBO) in four randomly-selected microscopic fields at 200× magnification.

Wistar rats [2] = assay: Bile volume and HPLC bile acid analysis in rBDL rats prior to PHx (Example 6); assay type: in vivo, rat
Protocol: as §1
Bile acids were separated and quantified by reverse-phase high-performance liquid chromatography (HPLC) [Lionarons 2016]. Bile or plasma samples (20 μL) were deproteinated by the addition of 5 volumes of acetonitrile. Following centrifugation (10 min at 20,000×g), solvent was evaporated from supernatants and bile salts were solubilized in 200 μL of 25% methanol. For liver homogenates, 100 mg liver tissue was sonicated for 30-90 s in 500 μL of water. One mL of acetonitrile was added for protein precipitation. Samples were subsequently centrifuged at 20,000×g for 10 min, after which the supernatant was used for analysis. Results were corrected for homogenate protein content. One hundred μL of sample was applied to a Hypersil C18 HPLC column (Thermo Scientific, Waltham, Mass.) operated at 20° C. […] Detection was done using a Nano Quantity Analyte Detector QT-500 (Quant Technologies, Blaine, Minn.). Bile acids were quantified using a separate calibration curve per species. […]

[3] = test system: New Zealand White rabbits; assay: Hepatobiliary scintigraphy, 99mTc-mebrofenin uptake after PVE (Example 5); assay type: in vivo, rabbit
Protocol: Liver function was assessed using hepatobiliary scintigraphy (HBS) with ^99mTc-labeled (2,4,6 trimethyl-3-bromo) iminodiacetic acid (^99mTc-mebrofenin, Bridatec, GE Healthcare, Eindhoven, the Netherlands) at days −7, −1, +3 and +7. Rabbits (n=6 per treatment group) were anesthetized and positioned on an imaging table with the liver and heart positioned under a large field-of-view single photon emission computed tomography (SPECT/CT) camera (Siemens Symbia T16). Regions of interest were drawn around the left ventricle for blood pool readings, around the entire liver for total liver uptake, and around the caudal liver lobe (FIG. 10; the yellow region of interest (ROI) delineates the left ventricle, the red ROI the total liver and the pink ROI the caudal liver lobe; a marked decrease in cranial liver lobe activity and increase in caudal liver lobe activity was seen following portal vein embolization.). Per rabbit, a dose of 50 MBq ^99mTc-mebrofenin was administered via a lateral ear vein directly before the start of acquisition.
The geometric mean dataset of the anterior and posterior cameras was used for analysis. Hepatic ^99mTc-mebrofenin uptake rate was calculated as an increase of ^99mTc-mebrofenin uptake over two minutes, corrected for perfusion. Total liver uptake was represented by the total hepatic ^99mTc-mebrofenin uptake rate, and calculated as a percentage of the injected dose per minute. The fractional ^99mTc-mebrofenin uptake rate was calculated for the caudal liver lobe, based of distribution of segmental activity and was corrected for baseline measurements at t=−7 days.

Wistar rats [4] = assay: Liver growth in cholestatic (rBDL) rats prior to partial hepatectomy (Example 6); assay type: in vivo, rat; conditions: prior to PHx
Text: After the acclimatization period, the rats either continued on a regular chow diet or were switched to a methionine and choline-deficient (MCD) diet (Harlan Teklad, Madison, Wis.) for 3 weeks to induce moderate hepatic steatosis [Heger 2011a]. At the start of the second diet week, the rats either underwent sham surgery or were subjected to reversible bile duct ligation (rBDL). For rBDL, the extrahepatic bile duct was cannulated with a polyethylene catheter (length=±1.5 cm, inner diameter=0.4 mm, outer diameter=0.9 mm, Braun, Melsungen, Germany) connected to Silastic Tubing with a closed distal tip (length=±7.5 cm, inner diameter=0.8 mm, outer diameter=1.4 mm, Dow Corning, Midland, Mich.) [Kloek 2008]. Sham-operated animals underwent abdominal surgery, including bile duct mobilization, without inducing a biliary obstruction. Groups of rBDL rats were left untreated or received a daily oral gavage of the FXR agonist obeticholic acid (OCA, 10 mg/kg in 0.5% methylcellulose, 1.5 mL per 300 g body weight) between 7:30 and 9:00 AM.
Seven days after BDL or sham operation, all rats were subjected to 70% PHx [DeGraaf 2011]. […]
At baseline (i.e., directly before PHx) and one to five days after PHx, animals were euthanized under isoflurane anesthesia by exsanguination. […] Liver regrowth was calculated from the regenerated liver mass, and was expressed as percentage of total liver mass prior to PHx. The projected remnant liver mass was calculated using the weight of the resected liver segments, which represent 70% of the total liver mass. Dry liver weights were measured to correct for hepatic water content [Kloek 2010a].
After formalin fixation, liver specimens were dehydrated, paraffin-embedded, and stained with hematoxylin and eosin (H&E), the collagen type I and III stain picrosirius red, or the proliferation marker Ki67 [Marsman 2013]. Semi-quantitative analysis of H&E- and picrosirius red-stained liver histology was performed by an experienced hepatopathologist (JV) blinded to the experimental groups using a scoring system detailed in Table 1. […]

[5] = prior to PHx, vs control and untreated rBDL
[6] = after seven days of OCA treatment

CC[C@H]1[C@@H](O)[C@@H]2[C@H](CC[C@]3(C)[C@@H]([C@H](C)CCC(=O)O)CC[C@@H]23)[C@@]2(C)CC[C@@H](O)C[C@@H]12 [Compound 1, 3α,7α-dihydroxy-6α-ethyl-5β-cholanic acid]
bilirubin clearance (Wistar rats [1]; after PHx): lagged marginally | decline of ALP levels (Wistar rats [1]; after PHx): ~4 fold | time to normalization of hepatobiliary injury markers (Wistar rats [1]; after PHx, rBDL groups, recovery more gradual with OCA): ≤ 48 h | ALP levels vs other study arms (Wistar rats [1]; during regeneration): remained higher | liver injury after hepatectomy (Wistar rats [1]; histology day 5 after PHx): did not exacerbate liver injury after hepatectomy | plasma gamma glutamyltransferase (Wistar rats [1]; prior to PHx): followed the same dynamics as ALP | plasma alanine aminotransferase (ALT) (Wistar rats [1]; [5]): considerably higher | plasma alkaline phosphatase (ALP) (Wistar rats [1]; [5]): considerably higher | bile retrieved from the extrahepatic bile duct (Wistar rats [2]; [6]): substantial increase | biliary BA output (Wistar rats [2]; [6]): elevated | hepatic BA load / content (Wistar rats [2]; prior to PHx, rBDL, listed as OCA): reduction; also recorded: effectively counteracted | increase in contribution of caudal liver lobe (CLF share) to total liver mebrofenin uptake ([3]; 3 days after PVE): 44.5±5.4% | increase in caudal liver function relative to vehicle ([3]; day +3): 1.2 fold | total liver uptake of mebrofenin ([3]; days −1, +3, +7, N=6): remained stable in both groups | liver mass corrected for hepatic water content (dry weight) (Wistar rats [4]; 7 days rBDL): increased liver mass | gross liver mass vs control group (Wistar rats [4]; 7 days rBDL, 10 mg/kg daily oral): higher | hepatocyte proliferation measured by Ki67 staining (Wistar rats [4]; vs untreated rBDL or non-cholestatic animals): more pronounced
